Laboratory results: PubChem BioAssay (NCI)
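Exposure lasted 48 hours, with cells grown in 96-well plates and compounds tested at five concentrations. GI50 is the concentration that inhibits growth by half. TGI marks complete inhibition of growth.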

Experiments:
Assay in all cases: inhibition of tumour cell growth, NCI panel, 48 h
BT-549 breast = test system: BT-549 breast
SF-539 CNS = test system: SF-539 CNS
786-0 renal = test system: 786-0 renal
CAKI-1 renal = test system: CAKI-1 renal
T-47D breast = test system: T-47D breast
OVCAR-5 ovarian = test system: OVCAR-5 ovarian
SNB-19 CNS = test system: SNB-19 CNS
COLO 205 colon = test system: COLO 205 colon
NCI-H226 lung = test system: NCI-H226 lung
NCI-H522 lung = test system: NCI-H522 lung
NCI/ADR-RES ovarian = test system: NCI/ADR-RES ovarian

SMILES | TGI (BT-549 breast) | TGI (SF-539 CNS) | TGI (786-0 renal) | TGI (CAKI-1 renal) | TGI (T-47D breast) | TGI (OVCAR-5 ovarian) | TGI (SNB-19 CNS) | TGI (COLO 205 colon) | TGI (NCI-H226 lung) | TGI (NCI-H522 lung) | TGI (NCI/ADR-RES ovarian) | GI50 (SF-539 CNS) | GI50 (CAKI-1 renal) | GI50 (OVCAR-5 ovarian) | GI50 (SNB-19 CNS) | GI50 (COLO 205 colon) | GI50 (NCI-H226 lung) | GI50 (NCI-H522 lung) | GI50 (NCI/ADR-RES ovarian) | GI50 (T-47D breast)
O=C1c2cc(O)c(O)cc2O[C@H](c2ccc(O)c(O)c2)[C@H]1O | > 100 µM | > 100 µM | > 100 µM | > 100 µM | > 100 µM | > 100 µM | > 100 µM | > 100 µM | > 100 µM | > 100 µM | > 100 µM | – | – | – | – | – | – | – | – | –
Oc1ccc(C(=C(Br)c2ccccc2)c2ccc(O)cc2)cc1 | 15.4 µM | 18.8 µM | – | 30.8 µM | 46.2 µM | 31.2 µM | 17.1 µM | – | 33 µM | 17.6 µM | 12.6 µM | – | – | – | – | – | – | – | – | –
CSc1nncc(-c2cc3c(c(SC)n2)CCCC3)n1 | > 100 µM | > 100 µM | > 100 µM | > 100 µM | – | > 100 µM | > 100 µM | > 100 µM | > 100 µM | > 100 µM | > 100 µM | – | – | – | – | – | – | – | – | –
O=[N+]([O-])c1ccc(/C=N/Nc2nc3ccccc3[nH]2)o1 | 31.1 µM | 13.8 µM | > 100 µM | 28.7 µM | 35.8 µM | 49.8 µM | > 100 µM | 23 µM | 55.5 µM | 41.2 µM | > 100 µM | – | – | – | – | – | – | – | – | –
O=C(CSCC(=O)N/N=C/c1cccc(O)c1)N/N=C/c1cccc(O)c1 | – | > 100 µM | > 100 µM | > 100 µM | > 100 µM | > 100 µM | > 100 µM | > 100 µM | > 100 µM | > 100 µM | > 100 µM | – | – | – | – | – | – | – | – | –
C=C(C#N)C(=O)OCC(CC)CC.C=C(C#N)C(=O)OCC(CC)CC.CS(C)=O.CS(C)=O.Nc1c(N=Nc2ccc(-c3ccc(N=Nc4cc(S(=O)(=O)[O-])c5ccccc5c4N)cc3)cc2)cc(S(=O)(=O)[O-])c2ccccc12.[Pt+2] | – | > 100 µM | – | 53.7 µM | – | > 100 µM | > 100 µM | 45.6 µM | > 74.1 µM | 19.3 µM | 91.7 µM | 84.7 µM | 20.4 µM | > 78.4 µM | > 100 µM | 22.3 µM | 36.8 µM | 13.7 µM | 34 µM | –
O=C1c2cc3c(cc2-c2c1c1ccc(Cl)cc1c(=O)n2C[C@H](O)CO)OCO3 | – | 0.093 µM | – | 0.192 µM | > 100 µM | 1.15 µM | – | 10.1 µM | 0.165 µM | 1.82 µM | 1.12 µM | 0.0253 µM | < 0.01 µM | 0.119 µM | – | 0.0954 µM | 0.0296 µM | 0.0422 µM | 0.0322 µM | 0.0315 µM
O=C1C(Cl)N(c2ccccc2Cl)C1c1c[nH]c2ccccc12 (configuration not stated) | – | > 100 µM | – | – | – | – | > 100 µM | > 100 µM | – | > 100 µM | – | – | – | – | – | – | – | – | – | –
CCOC(=O)c1c2c(n(-c3ccc(C)cc3)c1C)-c1ccccc1C(=O)C2(C(=O)OCC)C(=O)OCC | 55.2 µM | > 71.9 µM | > 100 µM | > 100 µM | 64.5 µM | > 100 µM | > 100 µM | > 100 µM | > 94.7 µM | 79.9 µM | > 85.3 µM | – | – | – | – | – | – | – | – | –
CCN(CC)CCNc1ccc2ncn3c4ccc(O)cc4c(=O)c1c23 | 24.9 µM | 16.9 µM | 14.1 µM | 2.08 µM | 30.7 µM | 17.4 µM | 19.2 µM | 14.7 µM | 1.33 µM | 15.7 µM | 16.1 µM | – | – | – | – | – | – | – | – | –
CC(SC(=S)N1CCOCC1)C(=O)Nc1nnc(-c2ccc(Cl)cc2)o1 (configuration not stated) | > 100 µM | > 100 µM | > 100 µM | – | > 100 µM | > 100 µM | > 100 µM | > 100 µM | > 100 µM | – | > 100 µM | – | – | – | – | – | – | – | – | –
COc1ccc(OC)c2sc(N3C(=O)/C(=C/c4cccc(Oc5ccccc5)c4)N=C3c3ccccc3)nc12 | > 100 µM | – | > 100 µM | > 100 µM | > 100 µM | > 100 µM | > 100 µM | > 100 µM | – | > 100 µM | > 100 µM | – | – | – | – | – | – | – | – | –
O=C1CC(O)c2cscc21 (configuration not stated) | > 100 µM | > 100 µM | > 100 µM | > 100 µM | > 100 µM | > 100 µM | – | > 100 µM | > 100 µM | > 100 µM | > 100 µM | – | – | – | – | – | – | – | – | –
COc1ccc2nc3cc(Cl)ccc3c(NC(C)CCCN(CCCl)CCCl)c2c1 (configuration not stated) | – | 3 µM | 3.87 µM | 13.9 µM | – | 8 µM | 7.15 µM | 2.15 µM | 3.44 µM | 2.24 µM | – | – | – | – | – | – | – | – | – | –
COC(=O)c1cc2c(cc1Cl)Sc1nnc(Nc3ccccc3)n1S2(=O)=O | 14.5 µM | 6.07 µM | 16.4 µM | 7.23 µM | 3.72 µM | 21.4 µM | 7.98 µM | 19.5 µM | 14.8 µM | 3.26 µM | 27.4 µM | – | – | – | – | – | – | – | – | –
Cc1cccc2sc(NC(=O)NS(=O)(=O)n3cnc4ccccc43)nc12 | 59.9 µM | 78 µM | > 100 µM | > 100 µM | 62.6 µM | 89.4 µM | > 100 µM | > 100 µM | > 100 µM | 62.9 µM | > 100 µM | – | – | – | – | – | – | – | – | –
COc1ccc2nc3c(c(N)c2c1)C1CCC3C1(C)C (configuration not stated) | > 100 µM | > 100 µM | 59.2 µM | > 100 µM | > 100 µM | > 100 µM | > 100 µM | 36.2 µM | 72 µM | > 100 µM | > 100 µM | – | – | – | – | – | – | – | – | –
O=S(=O)(/N=C(\NO)Nc1ccc(Cl)cc1)c1cc(C(F)(F)F)cc(C(F)(F)F)c1 | 33.3 µM | 46.6 µM | 33.4 µM | 32.2 µM | 67.2 µM | 30.1 µM | 31.5 µM | 35.5 µM | 35.9 µM | 40.4 µM | 58.1 µM | – | – | – | – | – | – | – | – | –
Cc1ccc(S(=O)(=O)N(CC(O)COc2ccccc2)c2c(F)cccc2F)cc1 (configuration not stated) | – | 33 µM | 42.1 µM | 33.8 µM | 20.1 µM | > 100 µM | > 100 µM | 27.9 µM | 71.1 µM | – | 43.1 µM | – | – | – | – | – | – | – | – | –
C=CCNC(=O)C(C)C1CCC2(C)C=CC(=O)C(C)=C2C1O (configuration not stated) | – | > 100 µM | – | > 100 µM | – | > 100 µM | > 100 µM | > 100 µM | > 100 µM | > 100 µM | > 100 µM | – | – | – | – | – | – | – | – | –
Cc1ccc(S(=O)(=O)OC2CC(C(C)(C)C)CCC2c2ccccc2)cc1 (configuration not stated) | > 100 µM | > 100 µM | > 100 µM | > 100 µM | > 100 µM | > 100 µM | > 100 µM | > 100 µM | > 100 µM | – | > 100 µM | – | – | – | – | – | – | – | – | –
O=C1c2ccccc2C(=O)c2[nH]cnc21 | – | > 100 µM | > 100 µM | > 100 µM | – | – | > 100 µM | – | 93.3 µM | > 100 µM | – | – | – | – | – | – | – | – | – | –
NCCOc1cccc(C2(N3CCCCC3)CCCCC2)c1 | 40 µM | 32.3 µM | 26.1 µM | > 100 µM | > 100 µM | > 100 µM | > 100 µM | 26 µM | > 100 µM | 36.1 µM | > 100 µM | – | – | – | – | – | – | – | – | –
O=c1[nH]c2[nH]c(=S)[nH]c(=S)c2[nH]1 | > 100 µM | – | > 100 µM | > 100 µM | > 100 µM | > 100 µM | > 100 µM | – | > 100 µM | > 100 µM | > 100 µM | – | – | – | – | – | – | – | – | –
